Test results taken from ChEMBL document CHEMBL1201862, “PubChem BioAssay data set” (2004).
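Compound exposure: 48 hours, 5 concentrations, 96-well plates. GI50: concentration for 50% inhibition of growth.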 Calls of active or inactive are those of the source. Rule as the data show it: active = GI50 up to about 1.1 µM and inactive = higher.

What was measured:
Assay in all cases: growth of human tumour cells (NCI), 48 h
[1] = test system: RXF 393
[2] = test system: M14
[3] = test system: IGROV-1
[4] = test system: NCI-H226
[5] = test system: HCT-15
[6] = test system: ACHN
[7] = test system: HL-60
[8] = test system: SF-268
[9] = test system: HOP-62
[10] = test system: U-251
[11] = test system: UACC-62
[12] = test system: SK-OV-3
[13] = test system: MOLT-4
[14] = test system: SW-620
[15] = test system: OVCAR-3
[16] = test system: NCI-H460
[17] = test system: RPMI-8226
[18] = test system: SK-MEL-28

Row | SMILES | GI50 [1] | GI50 [2] | GI50 [3] | GI50 [4] | GI50 [5] | GI50 [6] | GI50 [7] | GI50 [8] | GI50 [9] | GI50 [10] | GI50 [11] | GI50 [12] | GI50 [13] | GI50 [14] | GI50 [15] | GI50 [16] | GI50 [17] | GI50 [18]
1 | COC12C=C(C)C(CC1)CC2C(=O)O (configuration not stated) | > 100 µM (inactive) | > 100 µM (inactive) | > 100 µM (inactive) | > 100 µM (inactive) | > 100 µM | > 100 µM (inactive) | > 100 µM (inactive) | > 100 µM (inactive) | > 100 µM (inactive) | > 100 µM (inactive) | > 100 µM (inactive) | > 100 µM (inactive) | > 100 µM (inactive) | > 100 µM (inactive) | > 100 µM (inactive) | > 100 µM (inactive) | > 100 µM (inactive) | > 100 µM (inactive)
2 | C=C1C(=O)OC2C[C@H](C)C3CC(=O)C(C)=C3CC12 (some centres not stated) | 13.2 µM (inactive) | 12.4 µM (inactive) | 15.4 µM (inactive) | 2.94 µM (inactive) | 11.2 µM | 12.1 µM (inactive) | 2.33 µM (inactive) | 18.2 µM (inactive) | 23.4 µM (inactive) | 12.4 µM (inactive) | 11.8 µM (inactive) | > 57 µM (inactive) | 6.92 µM (inactive) | 4.81 µM (inactive) | 12.1 µM (inactive) | 21.9 µM (inactive) | 4.45 µM (inactive) | 5.28 µM (inactive)
3 | CC1(C)COC(c2c(-c3ccccc3)noc2C[S+]([O-])c2ccccc2)=N1 (configuration not stated) | > 100 µM (inactive) | 48.9 µM (inactive) | 88.5 µM (inactive) | 30.3 µM (inactive) | 27.4 µM | 40 µM (inactive) | 23.9 µM (inactive) | 19.9 µM (inactive) | 31.4 µM (inactive) | 32.5 µM (inactive) | 20.7 µM (inactive) | 72.3 µM (inactive) | 22.5 µM (inactive) | > 100 µM (inactive) | > 100 µM (inactive) | 28.3 µM (inactive) | 22.1 µM (inactive) | 33.1 µM (inactive)
4 | COc1ccc2c(c1)c(Cc1c(C)n(C)c3ccc(OC)cc13)c(C)n2C | 47.8 µM (inactive) | > 100 µM (inactive) | > 100 µM (inactive) | > 100 µM (inactive) | > 100 µM | > 100 µM (inactive) | > 100 µM (inactive) | > 100 µM (inactive) | > 100 µM (inactive) | > 100 µM (inactive) | > 100 µM (inactive) | > 100 µM (inactive) | > 100 µM (inactive) | > 100 µM (inactive) | > 100 µM (inactive) | > 100 µM (inactive) | > 100 µM (inactive) | > 100 µM (inactive)
5 | CCOC(=O)NC(=O)c1cn(CCOC(=O)NCCCCCCNC(=O)OCCn2cc(C(=O)NC(=O)OCC)c(=O)[nH]c2=O)c(=O)[nH]c1=O | > 100 µM (inactive) | > 100 µM (inactive) | > 100 µM (inactive) | > 100 µM (inactive) | > 100 µM | > 100 µM (inactive) | > 100 µM (inactive) | > 100 µM (inactive) | > 100 µM (inactive) | > 100 µM (inactive) | > 100 µM (inactive) | > 100 µM (inactive) | > 100 µM (inactive) | > 100 µM (inactive) | > 100 µM (inactive) | > 100 µM (inactive) | > 100 µM (inactive) | > 100 µM (inactive)
6 | COc1ccc(/C(Cl)=C(\C=O)c2ccc([N+](=O)[O-])cc2)cc1 | 11.5 µM (inactive) | 11.8 µM (inactive) | 22.4 µM (inactive) | 14.1 µM (inactive) | 5.25 µM | 18.5 µM (inactive) | 3.08 µM (inactive) | 20.5 µM (inactive) | 21.5 µM (inactive) | 10.5 µM (inactive) | 7.67 µM (inactive) | 33 µM (inactive) | 2.42 µM (inactive) | 4.34 µM (inactive) | 18.4 µM (inactive) | 18.3 µM (inactive) | 2.37 µM (inactive) | 23 µM (inactive)
7 | COC(=O)[C@@]1(C(C)CC(=O)O)CCCCC1=O (some centres not stated) | > 100 µM (inactive) | > 100 µM (inactive) | > 100 µM (inactive) | > 100 µM (inactive) | 42.6 µM | > 100 µM (inactive) | > 100 µM (inactive) | > 100 µM (inactive) | > 100 µM (inactive) | > 100 µM (inactive) | > 100 µM (inactive) | > 100 µM (inactive) | > 100 µM (inactive) | – | > 100 µM (inactive) | > 100 µM (inactive) | 34.3 µM (inactive) | > 100 µM (inactive)
8 | CC[C@@H](C)[C@@H]1NC(=O)C(C(C)=O)=C1O | 26.7 µM (inactive) | 17.1 µM (inactive) | 25.6 µM (inactive) | 31.7 µM (inactive) | 20.2 µM | 16.5 µM (inactive) | 53.8 µM (inactive) | 24.1 µM (inactive) | 18.3 µM (inactive) | 18.8 µM (inactive) | 12.5 µM (inactive) | 23.2 µM (inactive) | 11.4 µM (inactive) | 24.2 µM (inactive) | 27.6 µM (inactive) | 15.3 µM (inactive) | 26.2 µM (inactive) | 3.02 µM (inactive)
9 | O=c1c2ccccc2[nH]c2c(O)ccc(O)c12 | 11.7 µM (inactive) | 15.9 µM (inactive) | 15.1 µM (inactive) | 25.6 µM (inactive) | 17.9 µM | 17.3 µM (inactive) | 2.64 µM (inactive) | 25.4 µM (inactive) | > 100 µM (inactive) | 15.1 µM (inactive) | 16.7 µM (inactive) | 25.7 µM (inactive) | 7.91 µM (inactive) | 18 µM (inactive) | 16.6 µM (inactive) | 24.9 µM (inactive) | 22.8 µM (inactive) | 18.8 µM (inactive)
10 | Cc1cc(C)c(C(=O)OC(c2ccccc2)C(c2ccccc2)N2CCOCC2)c(C)c1 (configuration not stated) | 91 µM (inactive) | > 100 µM (inactive) | > 100 µM (inactive) | > 100 µM (inactive) | > 100 µM | > 100 µM (inactive) | 44.6 µM (inactive) | > 100 µM (inactive) | > 100 µM (inactive) | > 100 µM (inactive) | > 100 µM (inactive) | > 100 µM (inactive) | 93.3 µM (inactive) | > 100 µM (inactive) | > 100 µM (inactive) | > 100 µM (inactive) | 6.01 µM (inactive) | > 100 µM (inactive)
11 | NC1CCC[C@H]1O (some centres not stated) | > 100 µM (inactive) | > 100 µM (inactive) | > 100 µM (inactive) | > 100 µM (inactive) | > 100 µM | > 100 µM (inactive) | > 100 µM (inactive) | > 100 µM (inactive) | > 100 µM (inactive) | > 100 µM (inactive) | > 100 µM (inactive) | > 100 µM (inactive) | > 100 µM (inactive) | > 100 µM (inactive) | > 100 µM (inactive) | > 100 µM (inactive) | > 100 µM (inactive) | > 100 µM (inactive)
